Results reported in the NIST ThermoML archive (doi:10.1016/j.jct.2018.04.018).
Values joined by “and” are separate entries in the source; they are usually repeats but may differ in a detail not shown here. Equal entries are not always repeated.

Details: 101.33 kPa, Liquid; for speed of sound: Single path-length method; for mass density: Vibrating tube method

CCCCCCCC[n+]1ccn(C)c1.F[P-](F)(F)(F)(F)F [1-octyl-3-methylimidazolium hexafluorophosphate]
Details	viscosity
332.11 K, Cone and plate viscometry	101.6 mPa·s
332.85 K, Cone and plate viscometry	99.6 mPa·s and 99.3 mPa·s
333.15 K, Concentric cylinders viscometry	98.3 mPa·s
333.59 K, Cone and plate viscometry	95.7 mPa·s and 96 mPa·s
334.34 K, Cone and plate viscometry	92.5 mPa·s
334.35 K, Cone and plate viscometry	93 mPa·s
335.07 K, Cone and plate viscometry	89.7 mPa·s
335.09 K, Cone and plate viscometry	89.6 mPa·s
335.82 K, Cone and plate viscometry	86.7 mPa·s and 86.8 mPa·s
336.57 K, Cone and plate viscometry	84.1 mPa·s
337.31 K, Cone and plate viscometry	81.6 mPa·s and 81.7 mPa·s
338.05 K, Cone and plate viscometry	79.3 mPa·s
338.06 K, Cone and plate viscometry	78.8 mPa·s
338.79 K, Cone and plate viscometry	76.6 mPa·s
338.81 K, Cone and plate viscometry	76.2 mPa·s
339.54 K, Cone and plate viscometry	73.9 mPa·s and 74.2 mPa·s
340.28 K, Cone and plate viscometry	72 mPa·s
340.29 K, Cone and plate viscometry	71.9 mPa·s
341.03 K, Cone and plate viscometry	70 mPa·s
341.04 K, Cone and plate viscometry	69.8 mPa·s
341.77 K, Cone and plate viscometry	68 mPa·s and 68.1 mPa·s
342.51 K, Cone and plate viscometry	66.1 mPa·s and 66.6 mPa·s
343.15 K, Concentric cylinders viscometry	64.9 mPa·s
343.25 K, Cone and plate viscometry	64.1 mPa·s and 63.9 mPa·s
344 K, Cone and plate viscometry	62.2 mPa·s and 62 mPa·s
344.73 K, Cone and plate viscometry	60.4 mPa·s
344.76 K, Cone and plate viscometry	60.4 mPa·s
345.48 K, Cone and plate viscometry	58.8 mPa·s
345.51 K, Cone and plate viscometry	58.8 mPa·s
346.22 K, Cone and plate viscometry	57.2 mPa·s
346.29 K, Cone and plate viscometry	56.9 mPa·s
346.97 K, Cone and plate viscometry	55.4 mPa·s
347.05 K, Cone and plate viscometry	55.1 mPa·s
347.72 K, Cone and plate viscometry	53.8 mPa·s
347.81 K, Cone and plate viscometry	53.7 mPa·s
348.46 K, Cone and plate viscometry	52.4 mPa·s
348.57 K, Cone and plate viscometry	52.3 mPa·s
349.19 K, Cone and plate viscometry	51.1 mPa·s
349.33 K, Cone and plate viscometry	50.8 mPa·s
349.94 K, Cone and plate viscometry	49.7 mPa·s
350.07 K, Cone and plate viscometry	49.4 mPa·s
350.69 K, Cone and plate viscometry	48.3 mPa·s
350.77 K, Cone and plate viscometry	48.2 mPa·s
351.42 K, Cone and plate viscometry	47 mPa·s
351.48 K, Cone and plate viscometry	47.2 mPa·s
352.16 K, Cone and plate viscometry	46 mPa·s
352.22 K, Cone and plate viscometry	46.3 mPa·s
352.91 K, Cone and plate viscometry	45.1 mPa·s
352.99 K, Cone and plate viscometry	45.2 mPa·s
353.15 K, Concentric cylinders viscometry	44.7 mPa·s
353.66 K, Cone and plate viscometry	43.7 mPa·s
353.75 K, Cone and plate viscometry	44.3 mPa·s
354.39 K, Cone and plate viscometry	42.6 mPa·s
354.48 K, Cone and plate viscometry	43 mPa·s
355.14 K, Cone and plate viscometry	41.9 mPa·s
355.2 K, Cone and plate viscometry	42 mPa·s
355.88 K, Cone and plate viscometry	40.9 mPa·s
355.92 K, Cone and plate viscometry	41.3 mPa·s
356.63 K, Cone and plate viscometry	40.2 mPa·s
356.66 K, Cone and plate viscometry	40.5 mPa·s
357.36 K, Cone and plate viscometry	39 mPa·s
357.39 K, Cone and plate viscometry	39.2 mPa·s
358.1 K, Cone and plate viscometry	37.6 mPa·s
358.11 K, Cone and plate viscometry	38 mPa·s
358.85 K, Cone and plate viscometry	36.5 mPa·s
358.86 K, Cone and plate viscometry	37 mPa·s
359.6 K, Cone and plate viscometry	35.6 mPa·s and 36.5 mPa·s
360.35 K, Cone and plate viscometry	34.8 mPa·s and 35.7 mPa·s
361.08 K, Cone and plate viscometry	34.6 mPa·s
361.09 K, Cone and plate viscometry	35 mPa·s
361.82 K, Cone and plate viscometry	33.9 mPa·s and 34 mPa·s
362.57 K, Cone and plate viscometry	32.8 mPa·s
362.58 K, Cone and plate viscometry	32.5 mPa·s
363.15 K, Concentric cylinders viscometry	32.1 mPa·s
363.31 K, Cone and plate viscometry	32.1 mPa·s
363.32 K, Cone and plate viscometry	31.9 mPa·s
364.05 K, Cone and plate viscometry	31.3 mPa·s and 31.4 mPa·s
364.79 K, Cone and plate viscometry	31.1 mPa·s
364.8 K, Cone and plate viscometry	30.9 mPa·s
365.54 K, Cone and plate viscometry	29.7 mPa·s and 30.4 mPa·s
366.28 K, Cone and plate viscometry	29.6 mPa·s
366.29 K, Cone and plate viscometry	29.1 mPa·s
367.02 K, Cone and plate viscometry	28.7 mPa·s and 28.9 mPa·s
367.76 K, Cone and plate viscometry	27.9 mPa·s and 28.2 mPa·s
368.49 K, Cone and plate viscometry	27.6 mPa·s
368.51 K, Cone and plate viscometry	27.1 mPa·s
369.24 K, Cone and plate viscometry	27 mPa·s
369.26 K, Cone and plate viscometry	26.6 mPa·s
369.99 K, Cone and plate viscometry	26 mPa·s and 26.4 mPa·s
370.73 K, Cone and plate viscometry	25.4 mPa·s and 25.8 mPa·s
371.47 K, Cone and plate viscometry	25.2 mPa·s
371.49 K, Cone and plate viscometry	24.8 mPa·s
372.22 K, Cone and plate viscometry	24.8 mPa·s
372.23 K, Cone and plate viscometry	24.3 mPa·s
372.96 K, Cone and plate viscometry	24.3 mPa·s
372.97 K, Cone and plate viscometry	24.4 mPa·s
373.15 K, Concentric cylinders viscometry	24 mPa·s
373.71 K, Cone and plate viscometry	23.3 mPa·s and 23.7 mPa·s
374.44 K, Cone and plate viscometry	23.1 mPa·s
374.45 K, Cone and plate viscometry	22.9 mPa·s
375.19 K, Cone and plate viscometry	22.4 mPa·s and 22.6 mPa·s
375.94 K, Cone and plate viscometry	22.1 mPa·s and 22.3 mPa·s
376.68 K, Cone and plate viscometry	21.9 mPa·s
376.69 K, Cone and plate viscometry	22 mPa·s
377.41 K, Cone and plate viscometry	21.8 mPa·s
377.42 K, Cone and plate viscometry	21.6 mPa·s
378.16 K, Cone and plate viscometry	21.1 mPa·s
378.9 K, Cone and plate viscometry	20.7 mPa·s
378.91 K, Cone and plate viscometry	20.6 mPa·s
379.64 K, Cone and plate viscometry	20.3 mPa·s
379.65 K, Cone and plate viscometry	20.4 mPa·s
380.39 K, Cone and plate viscometry	19.7 mPa·s and 19.9 mPa·s
381.13 K, Cone and plate viscometry	19.6 mPa·s
381.14 K, Cone and plate viscometry	19.4 mPa·s
381.87 K, Cone and plate viscometry	19.2 mPa·s
381.88 K, Cone and plate viscometry	19 mPa·s
382.62 K, Cone and plate viscometry	18.5 mPa·s and 18.7 mPa·s
383.35 K, Cone and plate viscometry	18.2 mPa·s
383.36 K, Cone and plate viscometry	18.4 mPa·s
384.1 K, Cone and plate viscometry	18.2 mPa·s
384.11 K, Cone and plate viscometry	17.9 mPa·s
384.85 K, Cone and plate viscometry	17.7 mPa·s and 17.9 mPa·s
385.6 K, Cone and plate viscometry	17.4 mPa·s and 17.6 mPa·s
386.33 K, Cone and plate viscometry	16.8 mPa·s
386.34 K, Cone and plate viscometry	17 mPa·s
387.07 K, Cone and plate viscometry	16.6 mPa·s
387.08 K, Cone and plate viscometry	16.8 mPa·s
387.82 K, Cone and plate viscometry	16.5 mPa·s and 16.7 mPa·s
388.56 K, Cone and plate viscometry	16.6 mPa·s
388.57 K, Cone and plate viscometry	16.5 mPa·s
389.3 K, Cone and plate viscometry	16 mPa·s
389.32 K, Cone and plate viscometry	16.2 mPa·s
390.04 K, Cone and plate viscometry	15.8 mPa·s
390.05 K, Cone and plate viscometry	15.6 mPa·s
390.79 K, Cone and plate viscometry	15.3 mPa·s and 15.5 mPa·s
391.53 K, Cone and plate viscometry	15.4 mPa·s
391.54 K, Cone and plate viscometry	15.1 mPa·s
392.26 K, Cone and plate viscometry	14.7 mPa·s
392.28 K, Cone and plate viscometry	15.2 mPa·s
393.01 K, Cone and plate viscometry	14.6 mPa·s
393.02 K, Cone and plate viscometry	14.8 mPa·s
393.75 K, Cone and plate viscometry	14.5 mPa·s
393.76 K, Cone and plate viscometry	14.3 mPa·s
394.5 K, Cone and plate viscometry	14.3 mPa·s
394.51 K, Cone and plate viscometry	14.2 mPa·s
395.25 K, Cone and plate viscometry	14.1 mPa·s
395.26 K, Cone and plate viscometry	14 mPa·s
395.99 K, Cone and plate viscometry	13.9 mPa·s and 14 mPa·s
396.73 K, Cone and plate viscometry	13.7 mPa·s and 13.9 mPa·s
397.47 K, Cone and plate viscometry	13.5 mPa·s
397.48 K, Cone and plate viscometry	13.5 mPa·s
398.22 K, Cone and plate viscometry	13.2 mPa·s and 13.4 mPa·s
398.96 K, Cone and plate viscometry	13 mPa·s
398.97 K, Cone and plate viscometry	13.1 mPa·s
399.7 K, Cone and plate viscometry	12.9 mPa·s and 13 mPa·s
400.44 K, Cone and plate viscometry	12.9 mPa·s
400.45 K, Cone and plate viscometry	12.7 mPa·s
401.19 K, Cone and plate viscometry	12.6 mPa·s and 12.8 mPa·s
401.93 K, Cone and plate viscometry	12.3 mPa·s
401.94 K, Cone and plate viscometry	12.6 mPa·s
402.67 K, Cone and plate viscometry	12.2 mPa·s and 12.4 mPa·s
403.42 K, Cone and plate viscometry	12.1 mPa·s and 12.3 mPa·s
404.16 K, Cone and plate viscometry	12 mPa·s and 12.1 mPa·s
404.9 K, Cone and plate viscometry	11.7 mPa·s
404.91 K, Cone and plate viscometry	12 mPa·s
405.64 K, Cone and plate viscometry	11.5 mPa·s and 11.6 mPa·s
406.39 K, Cone and plate viscometry	11.3 mPa·s and 11.5 mPa·s
407.13 K, Cone and plate viscometry	11.2 mPa·s and 11.4 mPa·s
407.87 K, Cone and plate viscometry	11.3 mPa·s
407.88 K, Cone and plate viscometry	11.1 mPa·s
408.62 K, Cone and plate viscometry	10.6 mPa·s and 10.7 mPa·s
409.35 K, Cone and plate viscometry	10.4 mPa·s and 10.5 mPa·s
410.1 K, Cone and plate viscometry	10.3 mPa·s and 10.4 mPa·s
410.84 K, Cone and plate viscometry	10.3 mPa·s
410.85 K, Cone and plate viscometry	10.2 mPa·s
411.58 K, Cone and plate viscometry	10.1 mPa·s
411.59 K, Cone and plate viscometry	10.2 mPa·s
412.33 K, Cone and plate viscometry	10 mPa·s and 10.1 mPa·s
413.07 K, Cone and plate viscometry	9.6 mPa·s and 9.9 mPa·s
413.82 K, Cone and plate viscometry	9.6 mPa·s and 9.7 mPa·s

Details	mass density	speed of sound [m/s]
333.15 K	1209.85 kg/m3 [middle of 4 runs]	1318.6
343.15 K	1202.43 kg/m3 [middle of 4 runs]	–
343.16 K	–	1296.1
353.15 K	1195.18 kg/m3 and 1195.41 kg/m3	–
363.15 K	1188.37 kg/m3 and 1188.53 kg/m3	–
373.15 K	1181.63 kg/m3	–
